US9073897B2, “Cyclic sulfonium salt, process for production of same, and α-glucosidase inhibitor comprising same” (KINKI UNIVERSITY, priority 2011, dated 2015)

Key:
Type in all cases: biochemical
Maltase = assay: α-glucosidase inhibition, rat small intestinal brush border membrane, maltose substrate; settings: rat small intestine brush border membrane; maltose (74 mM); 0.1M maleate buffer (pH6.0); 37° C. for 30 minutes
Protocol: (§1) Brush border membrane follicles of rat's small intestine were prepared in accordance with the literature (Kessler, M. et al., Biochem. Biophys. Act, 1978, 506, 136), and a suspension of the follicles in 0.1M maleate buffer (pH6.0) was used as an intraintestinal α-glucosidase (maltase, sucrose and isomaltase).
A compound to be tested was dissolved in methylsulfoxide (DMSO) and the resulting solution was diluted with 0.1M maleate buffer to prepare a solution of the testing compound (DMSO concentration: 10%). A solution of a substrate (sucrose (74 mM), maltose (74 mM) or isomaltose (74 mM, […]) in the maleate buffer, a solution (25 μl) of the testing compound and the enzyme solution (25 μl) were mixed and the resulting solution was incubated at 37° C. for 30 minutes. Immediately after incubation, the resulting solution was heated by boiling water to terminate the reaction and mixed with water (150 μl). The concentration of glucose was measured by glucose oxidase method. The final concentration of DMSO in the testing solution was set to 2.5%, and no influence of DMSO on an inhibitory activity was detected. A 50% inhibitory concentration (IC50) was computed from the measured values.

Sucrase = target: T1, Sucrase (Rattus norvegicus, UniProt P23739); assay: α-glucosidase inhibition, rat small intestinal brush border membrane, sucrose substrate; settings: rat small intestine brush border membrane; sucrose (74 mM); 0.1M maleate buffer (pH6.0); 37° C. for 30 minutes
T1 construct: Brush border membrane follicles of rat's small intestine were prepared; from tissue; host or cells: rat small intestine brush border membrane vesicles
T1 sequence (P23739 whole entry): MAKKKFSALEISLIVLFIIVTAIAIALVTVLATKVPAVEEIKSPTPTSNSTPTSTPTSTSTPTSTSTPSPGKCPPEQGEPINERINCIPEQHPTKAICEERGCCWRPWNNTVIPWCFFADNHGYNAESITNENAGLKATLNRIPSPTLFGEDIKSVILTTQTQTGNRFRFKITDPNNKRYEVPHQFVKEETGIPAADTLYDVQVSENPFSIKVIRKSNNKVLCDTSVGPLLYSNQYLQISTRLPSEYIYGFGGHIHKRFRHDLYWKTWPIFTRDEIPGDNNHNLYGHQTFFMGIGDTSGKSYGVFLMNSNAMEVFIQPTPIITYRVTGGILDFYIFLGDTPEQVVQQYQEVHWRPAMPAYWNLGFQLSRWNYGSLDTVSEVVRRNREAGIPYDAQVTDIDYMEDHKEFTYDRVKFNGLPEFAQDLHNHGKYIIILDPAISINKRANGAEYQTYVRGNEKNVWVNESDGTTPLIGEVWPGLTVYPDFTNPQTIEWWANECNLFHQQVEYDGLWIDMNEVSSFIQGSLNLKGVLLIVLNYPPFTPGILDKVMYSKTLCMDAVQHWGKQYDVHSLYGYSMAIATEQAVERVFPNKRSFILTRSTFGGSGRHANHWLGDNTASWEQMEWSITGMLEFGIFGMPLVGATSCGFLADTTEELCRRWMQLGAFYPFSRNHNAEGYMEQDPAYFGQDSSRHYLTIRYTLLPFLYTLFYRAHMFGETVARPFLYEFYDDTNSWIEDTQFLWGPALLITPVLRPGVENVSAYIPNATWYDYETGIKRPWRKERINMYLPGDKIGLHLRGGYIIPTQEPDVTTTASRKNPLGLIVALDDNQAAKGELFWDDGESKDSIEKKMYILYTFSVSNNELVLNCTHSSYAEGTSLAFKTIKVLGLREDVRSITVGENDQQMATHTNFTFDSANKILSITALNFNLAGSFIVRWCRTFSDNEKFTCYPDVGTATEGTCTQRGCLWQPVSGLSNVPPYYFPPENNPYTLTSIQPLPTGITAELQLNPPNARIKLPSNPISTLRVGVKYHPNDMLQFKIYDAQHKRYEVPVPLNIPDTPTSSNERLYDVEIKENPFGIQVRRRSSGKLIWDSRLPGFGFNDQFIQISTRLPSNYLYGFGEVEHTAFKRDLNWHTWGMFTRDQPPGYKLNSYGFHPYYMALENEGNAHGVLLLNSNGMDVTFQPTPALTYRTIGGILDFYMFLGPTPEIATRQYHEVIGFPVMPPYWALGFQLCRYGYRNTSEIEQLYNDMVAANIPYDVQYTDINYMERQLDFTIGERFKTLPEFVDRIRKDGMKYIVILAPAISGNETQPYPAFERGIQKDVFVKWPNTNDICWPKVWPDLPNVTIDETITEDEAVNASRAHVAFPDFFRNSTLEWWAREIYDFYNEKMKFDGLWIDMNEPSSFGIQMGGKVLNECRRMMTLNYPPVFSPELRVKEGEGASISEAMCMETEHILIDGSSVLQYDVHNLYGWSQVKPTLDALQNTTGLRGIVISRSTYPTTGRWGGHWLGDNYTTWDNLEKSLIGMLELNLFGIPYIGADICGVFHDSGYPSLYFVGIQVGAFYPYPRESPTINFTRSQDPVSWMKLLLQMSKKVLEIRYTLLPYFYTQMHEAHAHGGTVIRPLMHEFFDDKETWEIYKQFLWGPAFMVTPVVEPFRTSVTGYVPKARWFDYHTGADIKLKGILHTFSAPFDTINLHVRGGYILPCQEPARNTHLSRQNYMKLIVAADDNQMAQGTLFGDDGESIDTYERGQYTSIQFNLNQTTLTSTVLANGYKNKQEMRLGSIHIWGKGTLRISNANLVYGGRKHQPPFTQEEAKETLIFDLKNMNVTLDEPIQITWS
Protocol: as §1
(§2) A compound to be tested was dissolved in methylsulfoxide (DMSO) and the resulting solution was diluted with 0.1M maleate buffer to prepare a solution of the testing compound (DMSO concentration: 10%). […] A 50% inhibitory concentration (IC50) was computed from the measured values.

Isomaltase = target: T2, Isomaltase (Rattus norvegicus, UniProt P23739); assay: α-glucosidase inhibition, rat small intestinal brush border membrane, isomaltose substrate; settings: rat small intestine brush border membrane; isomaltose (74 mM); 0.1M maleate buffer (pH6.0); 37° C. for 30 minutes
T2 construct: Brush border membrane follicles of rat's small intestine were prepared; from tissue; host or cells: rat small intestine brush border membrane vesicles
T2 sequence (P23739 whole entry): as above
Protocol: as §1, §2

| α-glucosidase (IC50) Maltase (Maltase) | IC50 (Sucrase) | IC50 (Isomaltase) | α-glucosidase (IC50) Sucrase (Sucrase) | α-glucosidase (IC50) Isomaltase (Isomaltase) | Compound |
| --- | --- | --- | --- | --- | --- |
| 5.3 µg/mL | 1710 nM | 1450 nM |  |  | COC(CO)C(O)C[S+]1CC(O)C(O)C1CO [Compound (Ia), 1,4-Dideoxy-1,4-[(R)-[4-deoxy-2-O-methyl-D-erythritol-4-yl]episulfoniumylidene]-D-arabitol chloride] |
|  | 423 nM | 953 nM |  |  | CCOC(CO)C(O)C[S+]1CC(O)C(O)C1CO [Compound (Ib), 1,4-Dideoxy-1,4-[(R)-[4-deoxy-2-O-ethyl-D-erythritol-4-yl]episulfoniumylidene]-D-arabitol chloride] |
| 1.52 µg/mL | 1540 nM | 1440 nM |  |  | CCCCCOC(CO)C(O)C[S+]1CC(O)C(O)C1CO [Compound (Ic), 1,4-Dideoxy-1,4-[(R)-[4-deoxy-2-O-(1-pentyl)-D-erythritol-4-yl]episulfoniumylidene]-D-arabitol chloride] |
| 0.8 µg/mL | 679 nM | 707 nM |  |  | CCCCCCCOC(CO)C(O)C[S+]1CC(O)C(O)C1CO [Compound (Id), 1,4-Dideoxy-1,4-[(R)-[4-deoxy-2-O-(1-heptyl)-D-erythritol-4-yl]episulfoniumylidene]-D-arabitol chloride] |
| 1.04 µg/mL | 2950 nM | 2170 nM |  |  | CCCCCCCCCCCCCOC(CO)C(O)C[S+]1CC(O)C(O)C1CO [Compound (Ie), 1,4-Dideoxy-1,4-[(R)-[4-deoxy-2-O-(1-tridecyl)-D-erythritol-4-yl]episulfoniumylidene]-D-arabitol chloride] |
| 0.3 µg/mL | 277 nM | 860 nM |  |  | CC(C)(C)COC(CO)C(O)C[S+]1CC(O)C(O)C1CO [Compound (If), 1,4-Dideoxy-1,4-[(R)-[4-deoxy-2-O-neopentyl-D-erythritol-4-yl]episulfoniumylidene]-D-arabitol chloride] |
| 0.44 µg/mL |  |  | 0.32 µg/mL | 0.12 µg/mL | F[B-](F)(F)F.OC[C@H](OCc1ccccc1)[C@H](O)C[S@+]1C[C@@H](O)[C@H](O)[C@H]1CO [Compound (Ig) (X = BF4), 1,4-dideoxy-1,4-[(R)-[2-O-benzyl-4-deoxy-D-erythritol-4-yl]episulfoniumylidene]-D-arabitol tetrafluoroborate] |
| 0.58 µg/mL | 1590 nM | 579 nM |  |  | OCC(OCc1ccccc1)C(O)C[S+]1CC(O)C(O)C1CO [Compound (Ig) (X = Cl), 1,4-Dideoxy-1,4-[(R)-[2-O-benzyl-4-deoxy-D-erythritol-4-yl]episulfoniumylidene]-D-arabitol chloride] |
| 0.66 µg/mL | 1140 nM | 1340 nM |  |  | Cc1ccccc1COC(CO)C(O)C[S+]1CC(O)C(O)C1CO [Compound (Ih), 1,4-Dideoxy-1,4-[(R)-[4-deoxy-2-O-(o-methylbenzyl)-D-erythritol-4-yl]episulfoniumylidene]-D-arabitol chloride] |
| 0.84 µg/mL | 3620 nM | 974 nM |  |  | Cc1cccc(COC(CO)C(O)C[S+]2CC(O)C(O)C2CO)c1 [Compound (Ii), 1,4-Dideoxy-1,4-[(R)-[4-deoxy-2-O-(m-methylbenzyl)-D-erythritol-4-yl]episulfoniumylidene]-D-arabitol chloride] |
| 0.86 µg/mL | 3060 nM | 1890 nM |  |  | Cc1ccc(COC(CO)C(O)C[S+]2CC(O)C(O)C2CO)cc1 [Compound (Ij), 1,4-Dideoxy-1,4-[(R)-[4-deoxy-2-O-(p-methylbenzyl)-D-erythritol-4-yl]episulfoniumylidene]-D-arabitol chloride] |
| 0.31 µg/mL | 237 nM | 684 nM |  |  | OCC(OCc1ccccc1Cl)C(O)C[S+]1CC(O)C(O)C1CO [Compound (Ik), 1,4-Dideoxy-1,4-[(R)-[2-O-(o-chlorobenzyl)-4-deoxy-D-erythritol-4-yl]episulfoniumylidene]-D-arabitol chloride] |
| 0.53 µg/mL | 2110 nM | 816 nM |  |  | OCC(OCc1cccc(Cl)c1)C(O)C[S+]1CC(O)C(O)C1CO [Compound (Il), 1,4-Dideoxy-1,4-[(R)-[2-O-(m-chlorobenzyl)-4-deoxy-D-erythritol-4-yl]episulfoniumylidene]-D-arabitol chloride] |
| 0.89 µg/mL | 1900 nM | 1790 nM |  |  | OCC(OCc1ccc(Cl)cc1)C(O)C[S+]1CC(O)C(O)C1CO [Compound (Im), 1,4-Dideoxy-1,4-[(R)-[2-O-(p-chlorobenzyl)-4-deoxy-D-erythritol-4-yl]episulfoniumylidene]-D-arabitol chloride] |
| 0.98 µg/mL | 1350 nM | 919 nM |  |  | OCC(OCc1ccc(C(F)(F)F)cc1)C(O)C[S+]1CC(O)C(O)C1CO [Compound (Is), 1,4-Dideoxy-1,4-[(R)-[4-deoxy-2-O-(p-trifluoromethylbenzyl)-D-erythritol-4-yl]episulfoniumylidene]-D-arabitol chloride] |
| 0.68 µg/mL | 973 nM | 589 nM |  |  | O=[N+]([O-])c1ccc(COC(CO)C(O)C[S+]2CC(O)C(O)C2CO)cc1 [Compound (Iv), 1,4-Dideoxy-1,4-[(R)[4-deoxy-2-O-(p-nitrobenzyl)-D-erythritol-4-yl]episulfoniumylidene]-D-arabitol chloride] |
| 1 µg/mL | 2130 nM | 799 nM |  |  | OCc1ccc(COC(CO)C(O)C[S+]2CC(O)C(O)C2CO)cc1 [Compound (Iw), 1,4-Dideoxy-1,4-[(R)-[4-deoxy-2-O-(p-hydroxymethyl)benzyl)-D-erythritol-4-yl]episulfoniumylidene]-D-arabitol chloride] |
| 5.2 µg/mL | 4790 nM | 3890 nM |  |  | O=S(=O)([O-])OC(CO)C(O)C[S+]1CC(O)C(O)C1CO (stereo not shown) [Salacinol, salacinol, reference compound] |

| Compound | α-glucosidase (IC50) Maltase (Maltase) | IC50 (Sucrase) | IC50 (Isomaltase) | α-glucosidase (IC50) Sucrase (Sucrase) | α-glucosidase (IC50) Isomaltase (Isomaltase) |
| --- | --- | --- | --- | --- | --- |
| OCC(CO)N[C@H]1C[C@](O)(CO)[C@@H](O)[C@H](O)[C@H]1O [voglibose, reference compound] |  | 823 nM | 7860 nM |  |  |
